From US5523223A, “Ketoester reductase for conversion of keto acid esters to optically active hydroxy acid esters” (priority 1992, dated 1996)
Values joined by “and” are separate entries in the source; they are usually repeats but may differ in a detail not shown here. Identical values can stand only once. “Also recorded” adds a separate entry of the source. Like-named read-outs stand apart in the source and are kept apart here.

Tests used:
[1] = test system: KERed from C. parapsilosis; assay: Inhibition study of the KERed (influence of metal cations and reagents); type: biochemical, Candida parapsilosis
Description: (§1) For the following investigation, partially purified enzyme (after Q-sepharose chromatography, 67-times enrichment) was used. […]
5-oxohexanoic acid ethyl ester
TEA-NaOH-buffer, 0.1 M; pH 7.9
The influence of various metal cations and reagents upon the enzymatic activity was investigated in tests in which the test preparation described under example 3.B was used.

[2] = test system: KERed from Candida parapsilosis; assay: Kinetic characterization of the KERed; type: biochemical; conditions: partially purified enzyme; for Vmax: referred to 2-butanone
[3] = test system: KERed from C. parapsilosis; assay: Substrate spectrum of the KERed; type: biochemical, Candida parapsilosis; conditions: reduction with NADH
Procedure: as §1
5-oxohexanoic acid ethyl ester […]
Corresponding to example 3.B, instead of 5-oxohexanoic acid ethyl ester a series of aromatic and aliphatic ketoesters, ketoacids, ketones, diketones and aldehydes were investigated as to whether they could be reduced enzymatically. For this the compounds were added always in 8 mM final concentration. […] The activity with 5-oxo-hexanoic acid ethyl ester was arbitrarily selected as 100%.

[4] = compound 0.1 mM, 35 mM 5-oxohexanoic acid ethyl ester, 0.2 mM NADH, pH 7.9
[5] = compound 1.0 mM, 35 mM 5-oxohexanoic acid ethyl ester, 0.2 mM NADH, pH 7.9
[6] = summary statements of the inhibition study

Compound | Residual Activity [1, 4] | Residual Activity [1, 5] | Influence on KERed activity (in words) [1, 6] | other results
[Mn+2] [Mn^2+] | 84% | 80% | – | –
O=C(O)c1cc[c]([Hg+])cc1.[OH-] [p-Hydroxymercuribenzoate] | 0% | 0% | Strong inhibition | –
Triton X-100 | – | – | – | Residual Activity ([1]; Triton X-100 0.1%): 100%
[Ca+2] [Ca^2+] | 78% | 68% | – | –
[Sn+2] [Sn^2+] | 73% | 0% | Rapid deactivation | –
Cl.NCCc1ccc(S(=O)(=O)F)cc1 [Pefabloc] | – | 100% | – | –
c1ccc(-c2ccccn2)nc1 [2,2'-bipyridyl] | – | – | Strong inhibition | Residual Activity ([1]; 2,2'-bipyridyl 0.05 mM): 52%; Residual Activity ([1]; 2,2'-bipyridyl 0.5 mM): 23%
[Ag+] [Ag^+] | 0% | 0% | Rapid deactivation | –
c1cnc2c(c1)ccc1cccnc12 [o-Phenanthroline] | 26% | – | relatively strongly inhibited; also recorded: Strong inhibition | –
[Fe+3] [Fe^3+] | 100% | – | – | –
CCN1C(=O)C=CC1=O [N-ethylmaleimide] | 70% | 47% | – | –
CCOC(=O)OC(=O)OCC [Diethyl Pyrocarbonate] | 100% | 100% | – | –
CCO [Ethanol] | – | – | – | Residual Activity ([1]; Ethanol 5%): 30%; Km [2]: 3400 µM; Vmax [2]: 42%
CC(=O)c1ccccc1 [Acetophenone] | – | – | – | Acceptance as substrate by the KERed (in words) [3]: acceptable as substrates; Km [2]: 49 µM; Vmax [2]: 22%
[Co+2] [Co^2+] | 38% | 12% | Rapid deactivation | –
CC(=O)C(Cl)Cl [1,1-Dichloroacetone] | – | – | – | Acceptance as substrate by the KERed (in words) [3]: acceptable as substrates; Km [2]: 176 µM; Vmax [2]: 45%
N[C@@H](CCC(=O)N[C@@H](CS)C(=O)NCC(=O)O)C(=O)O [Glutathione (reduced), Glutathione] | 100% | 100% | – | –
[Ni+2] [Ni^2+] | 10% | 0% | Rapid deactivation | –
[Cu+2] [Cu^2+] | 0% | 0% | Rapid deactivation | –
[Mg+2] [Mg^2+] | 91% | 82% | – | –
O=C(O)CN(CCN(CC(=O)O)CC(=O)O)CC(=O)O [EDTA] | – | – | – | Influence on KERed activity (in words) [1]: practically not inhibited; Residual Activity [1]: 100% and 80%
[Pb+2] [Pb^2+] | 0% | 0% | Rapid deactivation | –
O[C@@H](CS)[C@@H](O)CS (racemic) [1,4-Dithiothreitol] | 100% | 100% | Stabilization | –
[Zn+2] [Zn^2+] | 24% | 0% | – | –
[Hg+2] [Hg^2+] | 0% | 0% | Rapid deactivation | –
NC(=O)CI [Iodoacetamide] | 77% | 17.5% | Strong inhibition | –
CC(=O)C=O [Methylglyoxal] | 100% | 34% | – | –
